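Step 1: Grow cells in 96-well plates. Step 2: Expose to compound for 48 hours at 5 concentrations. Step 3: Interpolate endpoints linearly; if unreached, use highest concentration. At the GI50, growth is halved. Definition used: TGI = concentration required for complete inhibition of growth.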

Consider ten compounds from PubChem BioAssay (NCI).

Among the test systems are SK-MEL-2 melanoma; CAKI-1 renal; HCC-2998 colon; EKVX NSCLC; NCI-H460 lung; OVCAR-4 ovarian; SF-295 CNS; K-562 leukemia; SK-MEL-5 melanoma; 786-0 renal.
Holding throughout (assay): inhibition of tumour cell growth, NCI panel, 48 h

Take `O=C1C(=O)c2ccccc2-c2ccccc21`: the GI50 with SK-MEL-2 melanoma is 2020 nM; with CAKI-1 renal it was 1750 nM; in the test with HCC-2998 colon, 1.99 µM; with EKVX NSCLC it was 1.81 µM; in the test with NCI-H460 lung it was 1.92 µM; in the test with OVCAR-4 ovarian it was 1000 nM. In addition, the GI50 in the test on SF-295 CNS is 1760 nM; in the test on K-562 leukemia, 1010 nM; in the test with SK-MEL-5 melanoma, 1390 nM; with 786-0 renal, 1.83 µM. Besides, the TGI in the test with SK-MEL-2 melanoma was 4.79 µM; with CAKI-1 renal it was 3.34 µM; in the test on HCC-2998 colon it was 3.52 µM; in the test with EKVX NSCLC, 3.25 µM; in the test on NCI-H460 lung it was 3.99 µM; in the test with OVCAR-4 ovarian, 2.25 µM. For the same compound, the TGI with SF-295 CNS was 3.23 µM; in the test with K-562 leukemia, 4.02 µM; in the test with SK-MEL-5 melanoma, 2.79 µM; in the test with 786-0 renal it was 3.35 µM.

With `O=[N+]([O-])c1cc(CCl)ccc1CCl`, the TGI in the test on SK-MEL-2 melanoma is 7.83 µM; with CAKI-1 renal, 2.76 µM; in the test with HCC-2998 colon, 4.01 µM; in the test with EKVX NSCLC, 3.38 µM; in the test on NCI-H460 lung, over 39.3 µM; with OVCAR-4 ovarian, 3.22 µM. The TGI was 19.7 µM with SF-295 CNS, 7.49 µM with K-562 leukemia, 11.5 µM in the test with SK-MEL-5 melanoma and 3.34 µM in the test on 786-0 renal.

With `O=C(NCc1ccccc1)c1cc2cc(O)c(O)cc2cn1`, the TGI in the test on SK-MEL-2 melanoma was 97.6 µM; in the test on CAKI-1 renal, 98.5 µM; in the test on HCC-2998 colon it was over 100 µM; in the test on EKVX NSCLC it was over 100 µM; with NCI-H460 lung, 91.6 µM; in the test with OVCAR-4 ovarian it was over 100 µM. For the same compound, the TGI in the test on SF-295 CNS was over 100 µM; in the test on K-562 leukemia, over 100 µM; in the test with SK-MEL-5 melanoma, 50.9 µM; in the test on 786-0 renal it was over 100 µM.

Regarding `O=C1CCCC2=C(N1)C(=O)C=CC2=O`, the TGI in the test with SK-MEL-2 melanoma was 60.4 µM; in the test on CAKI-1 renal it was 49.6 µM; in the test on HCC-2998 colon, over 100 µM; in the test with EKVX NSCLC it was 53 µM; with NCI-H460 lung, 63.8 µM; in the test on OVCAR-4 ovarian, 67.6 µM. Further, the TGI in the test on SF-295 CNS was 56.4 µM; in the test with K-562 leukemia, 32 µM; in the test on SK-MEL-5 melanoma it was 57.1 µM; in the test on 786-0 renal, 57.5 µM.

On to `CCOc1ccccc1N=Nc1c(-c2ccccc2)nn(C(=O)CC(=O)Nc2cccc(Cl)c2)c1-c1ccccc1`, for which the TGI in the test on SK-MEL-2 melanoma, with CAKI-1 renal, in the test on HCC-2998 colon, with EKVX NSCLC, with NCI-H460 lung and in the test on OVCAR-4 ovarian was over 100 µM each time. Also, the TGI with SF-295 CNS, with K-562 leukemia, in the test on SK-MEL-5 melanoma and with 786-0 renal was over 100 µM in each case.

In the case of `Cn1ncc2c(/N=C/c3cccs3)[nH]c(=S)nc21`, the GI50 with SK-MEL-2 melanoma was over 64500 nM; with CAKI-1 renal it was 33400 nM; with HCC-2998 colon, 32.9 µM; in the test with EKVX NSCLC, 41.1 µM; with NCI-H460 lung it was 31 µM; with OVCAR-4 ovarian it was over 59000 nM. The GI50 in the test on SF-295 CNS is 41100 nM; with K-562 leukemia, 21200 nM; in the test with SK-MEL-5 melanoma, 17900 nM; with 786-0 renal, 60.1 µM. In addition, the TGI with SK-MEL-2 melanoma was over 100 µM; in the test with CAKI-1 renal, over 100 µM; in the test with HCC-2998 colon it was over 100 µM; in the test with EKVX NSCLC, 99.8 µM; with NCI-H460 lung it was over 100 µM; in the test with OVCAR-4 ovarian it was over 100 µM. The TGI with SF-295 CNS was over 83.3 µM; in the test with K-562 leukemia, over 100 µM; with SK-MEL-5 melanoma, 39.9 µM; in the test with 786-0 renal, over 100 µM.

In the case of `COc1ccc2c(c1)CCc1c(-c3noc4c3CCc3cc(OC)ccc3-4)noc1-2`, the TGI in the test on SK-MEL-2 melanoma, in the test with CAKI-1 renal, with HCC-2998 colon, in the test with EKVX NSCLC, with NCI-H460 lung and in the test with OVCAR-4 ovarian was over 100 µM each time. For the same compound, the TGI with SF-295 CNS, in the test with K-562 leukemia, with SK-MEL-5 melanoma and in the test with 786-0 renal was over 100 µM each time.

Take `CCOC(=O)C(Cc1ccccc1)NC(=O)c1ccc(N=NN(C)C)cc1` (stereo not given): the TGI in the test with SK-MEL-2 melanoma, with CAKI-1 renal, in the test on HCC-2998 colon, in the test with EKVX NSCLC, in the test on NCI-H460 lung and in the test on OVCAR-4 ovarian was over 100 µM throughout. The TGI with SF-295 CNS, in the test with K-562 leukemia, with SK-MEL-5 melanoma and in the test with 786-0 renal was over 100 µM in each case.

With `C/C(CC(=O)NNc1ccc([N+](=O)[O-])cc1)=N\Nc1ccc([N+](=O)[O-])cc1`, the GI50 in the test with SK-MEL-2 melanoma is 11000 nM; with CAKI-1 renal, 1930 nM; in the test with HCC-2998 colon it was 6.4 µM; with EKVX NSCLC it was 22.4 µM; in the test with NCI-H460 lung it was 4.14 µM; with OVCAR-4 ovarian, 5920 nM. The GI50 is 2960 nM in the test with SF-295 CNS, 622 nM in the test on K-562 leukemia, 2130 nM with SK-MEL-5 melanoma and 10.4 µM in the test with 786-0 renal. In addition, the TGI is 87.5 µM with SK-MEL-2 melanoma; 32.2 µM in the test on CAKI-1 renal; over 100 µM with HCC-2998 colon; over 100 µM in the test on EKVX NSCLC; over 100 µM in the test with NCI-H460 lung; over 100 µM with OVCAR-4 ovarian. Moreover, the TGI in the test with SF-295 CNS is 18.4 µM; with K-562 leukemia, over 100 µM; with SK-MEL-5 melanoma, 5.42 µM; with 786-0 renal, over 100 µM.

For the compound `NC1=C(Cl)C(=O)c2ccc(S(N)(=O)=O)cc2C1=O`, the GI50 with SK-MEL-2 melanoma is 192 nM; in the test on CAKI-1 renal, 820 nM; in the test with HCC-2998 colon it was 0.775 µM; in the test on EKVX NSCLC, 1.53 µM; in the test with NCI-H460 lung it was 0.21 µM; with OVCAR-4 ovarian, 324 nM. Also, the GI50 was 143 nM in the test on SF-295 CNS, 313 nM with K-562 leukemia, 30.4 nM in the test with SK-MEL-5 melanoma and 1.82 µM in the test with 786-0 renal. The TGI turned out to be 0.487 µM in the test on SK-MEL-2 melanoma; 2.28 µM in the test on CAKI-1 renal; 2.06 µM in the test on HCC-2998 colon; 2.91 µM in the test on EKVX NSCLC; 0.487 µM in the test with NCI-H460 lung; 1.01 µM with OVCAR-4 ovarian. Besides, the TGI is 0.289 µM in the test on SF-295 CNS, 1.21 µM in the test with K-562 leukemia, 0.0963 µM in the test on SK-MEL-5 melanoma and 3.24 µM in the test on 786-0 renal.
